Data from PubChem BioAssay (NCI).
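Results reflect a 48-hour exposure of cells in 96-well plates to compound at five concentrations. At the TGI there is no net growth.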

Assays:
Experiment in all cases: growth of human tumour cells (NCI), 48 h
[1] = test system: COLO 205 colon
[2] = test system: RXF-631 renal
[3] = test system: SF-268 CNS
[4] = test system: SK-MEL-28 melanoma
[5] = test system: DMS 273 small cell lung
[6] = test system: A549 NSCLC
[7] = test system: EKVX NSCLC
[8] = test system: HCT-116 colon
[9] = test system: SK-MEL-5 melanoma
[10] = test system: KM12 colon
[11] = test system: RPMI-8226 leukemia
[12] = test system: SN12C renal
[13] = test system: K-562 leukemia
[14] = test system: LXFL 529 NSCLC
[15] = test system: 786-0 renal
[16] = test system: OVCAR-3 ovarian
[17] = test system: HOP-92 NSCLC
[18] = test system: UACC-257 melanoma
[19] = test system: OVCAR-4 ovarian
[20] = test system: A498 renal
[21] = test system: HCC-2998 colon
[22] = test system: SW-620 colon
[23] = test system: ACHN renal
[24] = test system: NCI-H522 lung
[25] = test system: LOX IMVI melanoma
[26] = test system: SK-MEL-2 melanoma
[27] = test system: CCRF-CEM leukemia
[28] = test system: DMS 114 small cell lung
[29] = test system: HCT-15 colon
[30] = test system: HOP-62 NSCLC
[31] = test system: UO-31 renal
[32] = test system: KM20L2 colon
[33] = test system: SNB-19 CNS
[34] = test system: TK-10 renal
[35] = test system: HT29 colon
[36] = test system: IGROV1 ovarian
[37] = test system: SNB-75 CNS
[38] = test system: MALME-3M melanoma
[39] = test system: U251 CNS
[40] = test system: DLD-1 colon
[41] = test system: OVCAR-5 ovarian
[42] = test system: M19-MEL melanoma
[43] = test system: M14 melanoma
[44] = test system: OVCAR-8 ovarian
[45] = test system: SK-OV-3 ovarian
[46] = test system: SF-295 CNS
[47] = test system: SNB-78 CNS
[48] = test system: MOLT-4 leukemia
[49] = test system: NCI-H460 lung
[50] = test system: NCI-H23 lung
[51] = test system: SF-539 CNS
[52] = test system: UACC-62 melanoma
[53] = test system: HS 578T breast
[54] = test system: MDA-MB-231 breast
[55] = test system: MDA-MB-435
[56] = test system: BT-549 breast
[57] = test system: T-47D breast
[58] = test system: MCF7 breast
[59] = test system: CAKI-1 renal
[60] = test system: NCI/ADR-RES ovarian
[61] = test system: MDA-N
[62] = test system: RXF 393 renal
[63] = test system: DU-145 prostate
[64] = test system: NCI-H226 lung
[65] = test system: HL-60(TB) leukemia
[66] = test system: SR leukemia
[67] = test system: PC-3 prostate

Cc1cc2c(C=O)[nH]nc2c(C#N)c1C
TGI [1]: > 100 µM | TGI [2]: > 100 µM | TGI [3]: > 100 µM | TGI [4]: > 100 µM | TGI [5]: > 100 µM | TGI [6]: > 100 µM | TGI [7]: > 100 µM | TGI [8]: > 100 µM | TGI [9]: > 100 µM | TGI [10]: > 100 µM | TGI [11]: > 100 µM | TGI [12]: 78.6 µM | TGI [13]: > 100 µM | TGI [14]: > 100 µM | TGI [15]: > 100 µM | TGI [16]: > 100 µM | TGI [17]: 99.4 µM | TGI [18]: > 100 µM | TGI [19]: > 100 µM | TGI [20]: > 100 µM | TGI [21]: > 100 µM | TGI [22]: > 100 µM | TGI [23]: > 100 µM | TGI [24]: 22.7 µM | TGI [25]: > 100 µM | TGI [26]: > 100 µM | TGI [27]: > 100 µM | TGI [28]: 99.3 µM | TGI [29]: > 100 µM | TGI [30]: > 100 µM | TGI [31]: > 100 µM | TGI [32]: > 100 µM | TGI [33]: > 100 µM | TGI [34]: > 100 µM | TGI [35]: > 100 µM | TGI [36]: > 100 µM | TGI [37]: 40.9 µM | TGI [38]: > 100 µM | TGI [39]: > 100 µM | TGI [40]: > 100 µM | TGI [41]: > 100 µM | TGI [42]: > 100 µM | TGI [43]: > 100 µM | TGI [44]: > 100 µM | TGI [45]: > 100 µM | TGI [46]: > 100 µM | TGI [47]: > 100 µM | TGI [48]: > 100 µM | TGI [49]: > 100 µM | TGI [50]: > 100 µM | TGI [51]: 61.4 µM | TGI [52]: > 100 µM

CC(NC(=O)C1(N)CCCC1)C(=O)O (stereo not drawn)
TGI [1]: > 100 µM | TGI [53]: > 100 µM | TGI [3]: > 100 µM | TGI [4]: > 100 µM | TGI [54]: > 100 µM | TGI [6]: > 100 µM | TGI [7]: > 100 µM | TGI [55]: > 100 µM | TGI [8]: > 100 µM | TGI [9]: > 100 µM | TGI [10]: > 100 µM | TGI [56]: > 100 µM | TGI [11]: > 100 µM | TGI [12]: > 100 µM | TGI [13]: > 100 µM | TGI [15]: > 100 µM | TGI [16]: > 100 µM | TGI [57]: > 100 µM | TGI [18]: > 100 µM | TGI [19]: > 100 µM | TGI [20]: > 100 µM | TGI [21]: > 100 µM | TGI [58]: > 100 µM | TGI [22]: > 100 µM | TGI [23]: > 100 µM | TGI [24]: > 100 µM | TGI [25]: > 100 µM | TGI [59]: > 100 µM | TGI [26]: > 100 µM | TGI [27]: > 100 µM | TGI [29]: > 100 µM | TGI [30]: > 100 µM | TGI [60]: > 100 µM | TGI [31]: > 100 µM | TGI [61]: > 100 µM | TGI [62]: > 100 µM | TGI [33]: > 100 µM | TGI [34]: > 100 µM | TGI [35]: > 100 µM | TGI [63]: > 100 µM | TGI [64]: > 100 µM | TGI [36]: > 100 µM | TGI [37]: > 100 µM | TGI [38]: > 100 µM | TGI [65]: > 100 µM | TGI [39]: > 100 µM | TGI [66]: > 100 µM | TGI [41]: > 100 µM | TGI [43]: > 100 µM | TGI [44]: > 100 µM | TGI [45]: > 100 µM | TGI [46]: > 100 µM | TGI [67]: > 100 µM | TGI [48]: > 100 µM | TGI [50]: > 100 µM | TGI [52]: > 100 µM

CC(=O)O[C@H]1CC[C@@]2(C)[C@@H](CC[C@@H]3[C@@H]2CC(=O)[C@@]2(C)[C@H]3C[C@@H]3CC(C)=CC(=O)[C@@H]32)C1
TGI [1]: > 100 µM | TGI [53]: 80.3 µM | TGI [3]: > 100 µM | TGI [4]: > 100 µM | TGI [54]: > 100 µM | TGI [6]: > 100 µM | TGI [7]: > 100 µM | TGI [55]: > 100 µM | TGI [8]: > 100 µM | TGI [9]: > 100 µM | TGI [10]: > 100 µM | TGI [56]: 71.2 µM | TGI [11]: 45.8 µM | TGI [12]: > 100 µM | TGI [13]: > 100 µM | TGI [15]: > 100 µM | TGI [16]: > 100 µM | TGI [57]: > 100 µM | TGI [18]: > 100 µM | TGI [19]: > 100 µM | TGI [20]: > 100 µM | TGI [21]: > 100 µM | TGI [58]: > 100 µM | TGI [22]: > 100 µM | TGI [23]: > 100 µM | TGI [24]: > 100 µM | TGI [25]: > 100 µM | TGI [59]: > 100 µM | TGI [26]: > 100 µM | TGI [27]: > 100 µM | TGI [29]: > 100 µM | TGI [30]: > 100 µM | TGI [60]: > 100 µM | TGI [31]: > 100 µM | TGI [61]: > 100 µM | TGI [62]: 86.7 µM | TGI [33]: > 100 µM | TGI [34]: > 100 µM | TGI [35]: > 100 µM | TGI [63]: > 100 µM | TGI [64]: > 100 µM | TGI [36]: > 100 µM | TGI [37]: 73.8 µM | TGI [38]: > 100 µM | TGI [65]: 27.8 µM | TGI [39]: > 100 µM | TGI [66]: > 100 µM | TGI [41]: > 100 µM | TGI [43]: > 100 µM | TGI [44]: > 100 µM | TGI [45]: > 100 µM | TGI [46]: > 100 µM | TGI [67]: > 100 µM | TGI [50]: > 100 µM | TGI [52]: > 100 µM
